Data: US9943498B2, “Fe(III) complex compounds for the treatment and prophylaxis of iron deficiency symptoms and iron deficiency anemias” (Vifor (International) AG, priority 2010, dated 2018)

system: Male NMRI (SPF) mice fed a low-iron diet; assay: Fe utilization in iron-deficient mouse model; type: in vivo; details: male NMRI mice on low-iron diet (approx. 5 ppm iron); 2 mg iron/kg body weight/day by stomach tube, days 1-5 and 8-12; utilization on day 15 calculated from hemoglobin and body weight increase versus control group
Protocol: The excellent Fe utilizations that can be accomplished through the Fe complexes according to the invention were measured by means of the following mouse model.
Male NMRI (SPF) mice (approximately 3 weeks old) were fed a low-iron diet (approx. 5 ppm iron) for approximately 3 weeks. The iron complexes were then administered to them by means of a stomach tube (2 mg iron/kg body weight/day) for 2 times 5 days, with an interruption of 2 days (days 1-5 and 8-12). Utilization on day 15 was calculated from the hemoglobin increase and the body weight increase in accordance with the formula
[formula] • 0.07=Factor for 70 ml blood per kg body weight (BW) • 0.0034=Factor for 0.0034 g Fe/g Hb • Hb1=Hemoglobin level (g/I) on day 1 • Hb2(3)=Hemoglobin level (g/I) on day 8 (or 15) • BW4=body weight (g) on day 1 • BW9(14)=body weight (g) on day 8 (or 15) • Hb1 Control=average hemoglobin level (g/I) on day 1 in the control group, • Hb2(3) Control=average hemoglobin level (g/I) on day 8 (or 15) in the control group, • BW4 Control=average body weight (g) on day 1 in the control group, • BW9(14) Control=average body weight (g) on day 8 (or 15) in the control group, • Fe Dos.=entire administered iron (mg Fe) over 5 or 10 days, • Fe ut.=(Hb2(3)*BW9(14)-Hb1*BW4)*0.07*0.0034 (mg Fe) Δ Utilization=Fe tot. utilized (examined group)—Fe ut. Control group, utilized from food, (mg Fe)

| Substance | Utilization n 15 d (abs. %) |
| --- | --- |
| Tris(N,N-dibutyl-3-oxobutaneamide)-iron(III) Complex [Example 8] | 69 abs. % |
| Tris(N-butyl-3-oxobutaneamide)-iron(III) Complex [Example 7] | 41 abs. % |
| Tris-(N-hexyl-3-oxobutaneamide)-iron(III) Complex [Example 16] | 60 abs. % |
| Tris-(1-[4-(hydroxymethyl)piperidin-1-yl]butane-1,3-dione)-iron(III)-complex [Example 48] | 53 abs. % |
| Tris(3-oxopentaneamide)-iron(III) Complex [Example 18] | 81 abs. % |
| Tris(3-oxo-2-(piperidin-1-ylcarbonyl)butanenitrile)-iron(III) Complex [Example 5] | 61 abs. % |
| Tris-(N-butyl-N-methyl-3-oxobutaneamide)-iron(ill) Complex [Example 13] | 71 abs. % |
| Tris-(3-oxo-N,N-dipropylbutaneamide)-iron(III) Complex [Example 15] | 68 abs. % |
| Tris-(1-(morpholin-4-yl)butane-1,3-dione)-iron(III)-complex [Example 33] | 69 abs. % |
| Tris-(N-(2,3-dihydroxypropyl)-3-oxobutanamide)-iron(III)-complex [Example 46] | 78 abs. % |
| Tris(N-methyl-3-oxoheptaneamide)-iron(III) Complex [Example 11] | 75 abs. % |
| Tris-(1-(3-hydroxypiperidin-1-yl)butane-1,3-dione)-iron(III)-complex [Example 47] | 61 abs. % |
| Tris-(4-Methoxy-N,N-dimethyl-3-oxobutanamide)-iron(III)-complex [Example 24] | 70 abs. % |
| Tris-(N-(3-hydroxypropyl)-N-methyl-3-oxobutanamide)-iron(III)-complex [Example 54] | 76 abs. % |
| Tris-(N-(trans-4-hydroxycyclohexyl)-3-oxobutanamide)-iron(III)-complex [Example 55] | 84 abs. % |
| Tris-(1-[(3S)-3-hydroxypyrrolidin-1-yl]butane-1,3-dione)-iron(III)-complex [Example 51] | 78 abs. % |
| Tris-(Ethyl (1-methyl-2-oxopyrrolidin-3-yl)(oxo)acetate)-iron(III)-complex [Example 29] | 79 abs. % |
| Tris-(N-Butyl-3-oxoheptanamide)-iron(III)-complex [Example 63] | 71 abs. % |
| Tris-(4-Methoxy-1-(morpholin-4-yl)butane-1,3-dione)-iron(III)-complex [Example 27] | 88 abs. % |
| Tris-(2-Fluoro-N,N-dimethyl-3-oxobutanamide)-iron(II)-complex [Example 22] | 78 abs. % |
| Tris-(N,N-dimethyl-3-oxobutaneamide)-iron(III) Complex [Example 3] | 95 abs. % |
| Tris-(N-(2-hydroxypropyl)-3-oxobutanamide)-iron(III)-complex [Example 43] | 75 abs. % |
| Tris-(N,N,4-Trimethyl-3-oxopentanamide)-iron(III)-complex [Example 25] | 60 abs. % |
| Tris-(N-methyl-3-oxobutaneamide)-iron(III) Complex [Example 4] | 90 abs. % |
| Tris-(1-(4-Hydroxypiperidin-1-yl)-4-methylpentane-1,3-dione)-iron(III)-complex [Example 64] | 79 abs. % |

| Substance | Utilization n 15 d (abs. %) |
| --- | --- |
| Tris-(1-(4-hydroxypiperidin-1-yl)pentane-1,3-dione)-iron(III)-complex [Example 61] | 73 abs. % |
| Tris-(N-(3-hydroxypropyl)-3-oxobutanamide)-iron(III)-complex [Example 38] | 77 abs. % |
| Tris-(2-Fluoro-3-oxo-N-propylbutanamide)-iron(III)-complex [Example 23] | 88 abs. % |
| Tris-(1-[4-(2-hydroxyethyl)piperazin-1-yl]butane-1,3-dione)-iron(III)-complex [Example 52] | 84 abs. % |
| Tris-(3-acetyl-1-methylpiperidin-2-one)-iron(III)-complex [Example 31] | 71 abs. % |
| Tris-(N-(1-hydroxy-2-methylpropan-2-yl)-3-oxobutanamide)-iron(III)-complex [Example 41] | 68 abs. % |
| Tris-(ethyl 4-(dimethylamino)-2,4-dioxobutanoate)-iron(III)-complex [Example 32] | 81 abs. % |
| Tris-(N,N-diethyl-3-oxobutaneamide)-iron(III) Complex [Example 2] | 41 abs. % |
| Tris-(N-Cyclopropyl-3-oxobutanamide)-iron(III)-complex [Example 35] | 44 abs. % |
| Tris-(3-oxo-N-(propan-2-yl)butanamide)-iron(III)-complex [Example 36] | 79 abs. % |
| Tris-(1-(piperidin-1-yl)-butane-1,3-dione)-iron(III) Complex [Example 9] | 54 abs. % |
| Tris-(ethyl N-(3-oxobutanoyl)glycinate)-iron(l) complex (Tris((3-Oxo-butyrylamino)ethyl acetate)iron) [Example 20] | 77 abs. % |
| Tris-(N-(4-hydroxybutyl)-3-oxobutanamide)-iron(III)-complex [Example 39] | 66 abs. % |
| Tris-(N-(2-hydroxyethyl)-N-methyl-3-oxobutanamide)-iron(III)-complex [Example 42] | 30 abs. % |
| Tris-(3-acetyl-1-methylpyrrolidin-2-one)-iron(III)-complex [Example 28] | 73 abs. % |
| Tris-(N,N-bis-(2-hydroxyethyl)-3-oxobutaneamide)-iron(III) Complex [Example 12] | 35 abs. % |
| Tris(3-oxoheptaneamide)-iron(III) Complex [Example 10] | 45 abs. % |
| Tris-(1-(2,6-dimethylmorpholin-4-yl]butane-1,3-dione)-iron(III)-complex [Example 59] | 80 abs. % |
| Tris-(N-(2-methoxyethyl)-3-oxobutanamide)-iron(III)-complex [Example 34] | 32 abs. % |
| Tris-(N-(morpholin-4-yl)-3-oxobutanamide)-iron(III)-complex [Example 60] | 80 abs. % |
| Tris-(4-Methyl-1-(morpholin-4-yl)-pentane-1,3-dione)-iron(III)-complex [Example 26] | 64 abs. % |
| Tris(N,N-dimethyl-3-oxoheptaneamide)-iron(III) Complex [Example 17] | 48 abs. % |
| Tris-(1-(4-hydroxypiperidin-1-yl)-butane-1,3-dione)-iron(II) complex [Example 14] | 68 abs. % |
| Tris-(3-oxobutaneamide)-iron(III) Complex [Example 1] | 61 abs. % |
| Tris(N,N-dimethyl-3-oxopentaneamide)-iron(III) Complex [Example 19] | 73 abs. % |

same assay, conditions: mouse, in vivo

| Substance | Utilization n 15 d (abs. %) |
| --- | --- |
| Tris-(2-chloro-N-methyl-3-oxobutaneamide)-iron(III) Complex [Example 6] | 57 abs. % |
| Tris-(N-(2-hydroxyethyl)-3-oxobutanamide)-iron(III)-complex [Example 37] | 34 abs. % |
| Tris-(N-(1-hydroxypropan-2-yl)-3-oxobutanamide)-iron(III)-complex [Example 44] | 73 abs. % |
| Tris-(N-(5-hydroxypentyl)-3-oxobutanamide)-iron(III)-complex [Example 40] | 87 abs. % |
